Columns and labels:
[1] = test system: cucumber gray mold microorganism; experiment: Cucumber gray mold preventing effect assay; format: in vivo, Botrytis cinerea; details: analogous assay at 25 mg/l
Procedure: The sprayed leaves were air-dried, and loaded with a paper disc (8 mm in diameter) soaked with a spore suspension of a cucumber gray mold microorganism, and kept at 20 degrees C. and a high humidity. 4 Days after inoculation, the cucumber gray mold severity was investigated, and the protective value was calculated by the following equation. [table]

[2] = test system: wheat septoria bloth microorganism (Septoria tritici); experiment: Antimicroorganism effect, mycelial extension on PDA plate; format: cell-based; details: Zymoseptoria tritici, PDA plate medium, 50 mg/l, 1 to 3 days, read-out: growth inhibition grade
[3] = test system: wheat stagonospora blotch microorganism (Phaeosphaeria nodorum); experiment: as above; format: cell-based; details: Parastagonospora nodorum, PDA plate medium, 50 mg/l, 1 to 3 days, read-out: growth inhibition grade
[4] = test system: wheat eye spot microorganism (Pseudocercosporella herpotrichoides); experiment: as above; format: cell-based; details: Oculimacula yallundae, PDA plate medium, 50 mg/l, 1 to 3 days, read-out: growth inhibition grade
[5] = test system: wheat pink snow mold microorganism (Microdochium nivale); experiment: as above; format: cell-based; details: PDA plate medium, 50 mg/l, 1 to 3 days, read-out: growth inhibition grade
[6] = test system: wheat take-all microorganism (Gaeumannomyces graminis); experiment: as above; format: cell-based; details: PDA plate medium, 50 mg/l, 1 to 3 days, read-out: growth inhibition grade
[7] = test system: barley stripe microorganism (Pyrenophora graminea); experiment: as above; format: cell-based; details: PDA plate medium, 50 mg/l, 1 to 3 days, read-out: growth inhibition grade
[8] = test system: barley scald microorganism (Rhynchosporium secalis); experiment: as above; format: cell-based; details: PDA plate medium, 50 mg/l, 1 to 3 days, read-out: growth inhibition grade
[9] = test system: wheat fusarium blight microorganism (Fusarium graminearum); experiment: microbe, parasite or virus in culture; format: cell-based; details: read-out: growth inhibition grade
[10] = test system: barley loose smut microorganism (Ustilago nuda); experiment: Antimicroorganism effect, mycelial extension on PDA plate; format: cell-based; details: PDA plate medium, 50 mg/l, 1 to 3 days, read-out: growth inhibition grade
[11] = test system: rice blast microorganism (Pyricularia oryzae); experiment: microbe, parasite or virus in culture; format: cell-based; details: read-out: growth inhibition grade
[12] = test system: ricesheath blight microorganism (Rhizoctonia solani); experiment: Antimicroorganism effect, mycelial extension on PDA plate; format: cell-based; details: PDA plate medium, 50 mg/l, 1 to 3 days, read-out: growth inhibition grade
[13] = test system: rice bakanae disease microorganism (Giberella fujikuroi); experiment: as above; format: cell-based; details: PDA plate medium, 50 mg/l, 1 to 3 days, read-out: growth inhibition grade
[14] = test system: rice seedling blight microorganism (Rhizopus) (Rhizopus oryzae); experiment: as above; format: cell-based; details: Rhizopus arrhizus, PDA plate medium, 50 mg/l, 1 to 3 days, read-out: growth inhibition grade
[15] = test system: apple alternaria blotch microorganism (Alternaria alternata); experiment: as above; format: cell-based; details: PDA plate medium, 50 mg/l, 1 to 3 days, read-out: growth inhibition grade
[16] = test system: sclerotinia rot microorganism (Sclerotinia sclerotiorum); experiment: as above; format: cell-based; details: PDA plate medium, 50 mg/l, 1 to 3 days, read-out: growth inhibition grade
[17] = test system: gray mold microorganism (Botritis cinerea); experiment: as above; format: cell-based; details: PDA plate medium, 50 mg/l, 1 to 3 days, read-out: growth inhibition grade
[18] = test system: anthracnose microorganism (Glomerella cingulata); experiment: as above; format: cell-based; details: Colletotrichum gloeosporioides, PDA plate medium, 50 mg/l, 1 to 3 days, read-out: growth inhibition grade
[19] = test system: cucumber fusarium wilt microorganism (Fusarium oxysporum); experiment: as above; format: cell-based; details: PDA plate medium, 50 mg/l, 1 to 3 days, read-out: growth inhibition grade
[20] = test system: citrous blue mold microorganism (Penicillium italicum); experiment: as above; format: cell-based; details: PDA plate medium, 50 mg/l, 1 to 3 days, read-out: growth inhibition grade
[21] = test system: sugar beet cercospora leaf spot microorganism (Cercospora beticola); experiment: as above; format: cell-based; details: PDA plate medium, 50 mg/l, 1 to 3 days, read-out: growth inhibition grade
[22] = test system: Aspergillus microorganism (Aspergillus sp.); experiment: as above; format: cell-based; details: PDA plate medium, 50 mg/l, 1 to 3 days, read-out: growth inhibition grade
[23] = test system: Tricoderma microorganism (Trichoderma sp.); experiment: as above; format: cell-based; details: PDA plate medium, 50 mg/l, 1 to 3 days, read-out: growth inhibition grade
[24] = test system: penicillium microorganism (Penicillium sp.); experiment: as above; format: cell-based; details: PDA plate medium, 50 mg/l, 1 to 3 days, read-out: growth inhibition grade
[25] = test system: Cladosporium microorganism (Cladosporium sp.); experiment: as above; format: cell-based; details: PDA plate medium, 50 mg/l, 1 to 3 days, read-out: growth inhibition grade
[26] = test system: Mucor microorganism (Mucor sp.); experiment: as above; format: cell-based; details: PDA plate medium, 50 mg/l, 1 to 3 days, read-out: growth inhibition grade
[27] = test system: Aureobasidium microorganism (Aureobasidium sp.); experiment: as above; format: cell-based; details: PDA plate medium, 50 mg/l, 1 to 3 days, read-out: growth inhibition grade
[28] = test system: Curvularia microorganism (Curvularia sp.); experiment: as above; format: cell-based; details: PDA plate medium, 50 mg/l, 1 to 3 days, read-out: growth inhibition grade
[29] = test system: wood denaturing microorganism (Tyromyces palustris); experiment: as above; format: cell-based; details: PDA plate medium, 50 mg/l, 1 to 3 days, read-out: growth inhibition grade
[30] = test system: wood denaturing microorganism (Coriolus versicolor); experiment: as above; format: cell-based; details: Trametes versicolor, PDA plate medium, 50 mg/l, 1 to 3 days, read-out: growth inhibition grade

SMILES: OC1(Cn2cncn2)C(Cc2ccc(Cl)cc2)CCC12CC2 (single isomer, unassigned) [Compound I-1, 5-(4-chlorobenzyl)-4-(1H-1,2,4-triazol-1-ylmethyl)-4-spiro[2.4]heptanol]
- Controlling value [1]: 100%
- activity compared with Compound (A) [1]: higher activity
- inhibition at 50 µg/mL [2]: > 90%
- inhibition at 50 µg/mL [3]: > 90%
- inhibition at 50 µg/mL [4]: > 90%
- inhibition at 50 µg/mL [5]: 70 to 90%
- inhibition at 50 µg/mL [6]: > 90%
- inhibition at 50 µg/mL [7]: > 90%
- inhibition at 50 µg/mL [8]: > 90%
- inhibition at 50 µg/mL [9]: > 90%
- inhibition at 50 µg/mL [10]: 70 to 90%
- inhibition at 50 µg/mL [11]: > 90%
- inhibition at 50 µg/mL [12]: 70 to 90%
- inhibition at 50 µg/mL [13]: > 90%
- inhibition at 50 µg/mL [14]: 70 to 90%
- inhibition at 50 µg/mL [15]: 70 to 90%
- inhibition at 50 µg/mL [16]: > 90%
- inhibition at 50 µg/mL [17]: > 90%
- inhibition at 50 µg/mL [18]: > 90%
- inhibition at 50 µg/mL [19]: > 90%
- inhibition at 50 µg/mL [20]: > 90%
- inhibition at 50 µg/mL [21]: > 90%
- inhibition at 50 µg/mL [22]: > 90%
- inhibition at 50 µg/mL [23]: > 90%
- inhibition at 50 µg/mL [24]: > 90%
- inhibition at 50 µg/mL [25]: > 90%
- inhibition at 50 µg/mL [26]: 70 to 90%
- inhibition at 50 µg/mL [27]: 70 to 90%
- inhibition at 50 µg/mL [28]: 70 to 90%
- inhibition at 50 µg/mL [29]: > 90%
- inhibition at 50 µg/mL [30]: > 90%
- melting point: 85.5 to 87 °C

Source: patent publication US20110124877A1, “5-BENZYL-4-AZOLYLMETHYL-4-SPIRO[2.4]HEPTANOL DERIVATIVES, METHODS FOR PRODUCING THE SAME, AND AGRO-HORTICULTURAL AGENTS AND INDUSTRIAL MATERIAL PROTECTING AGENTS THEREOF” (KUREHA CORPORATION, priority 2008, published 2011)
